Assay results published in patent US20030224416A1, “Schizophrenia related gene” (priority 2002, published 2003).

Test system: Kv3.1 α-subunit mRNA
Assay: Experiment 1: in situ hybridization of Kv3.1 α-subunit mRNA in brain, chronic PCP rat model of schizophrenia with antipsychotic co-treatment
Assay type: in vivo

SMILES: Cc1cc2c(s1)Nc1ccccc1N=C2N1CCN(C)CC1 [Olanzapine, olanzapine]
- Kv3.1 α-subunit mRNA expression (ACg, PCP + drug 0.3 mg/kg/day): 15.83 ± 0.73 PSL/mm^2
- Kv3.1 α-subunit mRNA expression (ACg, PCP + drug 1 mg/kg/day): 14.83 ± 1.00 PSL/mm^2
- Kv3.1 α-subunit mRNA expression (ACg, PCP + drug 3 mg/kg/day): 16.31 ± 0.40 PSL/mm^2
- Kv3.1 α-subunit mRNA expression (ACg, PCP + drug 10 mg/kg/day): 15.03 ± 0.72 PSL/mm^2
- Kv3.1 α-subunit mRNA expression (AcbC, PCP + drug 0.3 mg/kg/day): 8.59 ± 0.58 PSL/mm^2
- Kv3.1 α-subunit mRNA expression (AcbC, PCP + drug 1 mg/kg/day): 8.12 ± 0.67 PSL/mm^2
- Kv3.1 α-subunit mRNA expression (AcbC, PCP + drug 3 mg/kg/day): 8.55 ± 0.25 PSL/mm^2
- Kv3.1 α-subunit mRNA expression (AcbC, PCP + drug 10 mg/kg/day): 8.27 ± 0.31 PSL/mm^2
- Kv3.1 α-subunit mRNA expression (AcbS, PCP + drug 0.3 mg/kg/day): 11.42 ± 0.73 PSL/mm^2
- Kv3.1 α-subunit mRNA expression (AcbS, PCP + drug 1 mg/kg/day): 10.43 ± 0.56 PSL/mm^2
- Kv3.1 α-subunit mRNA expression (AcbS, PCP + drug 3 mg/kg/day): 11.62 ± 0.84 PSL/mm^2
- Kv3.1 α-subunit mRNA expression (AcbS, PCP + drug 10 mg/kg/day): 11.95 ± 1.02 PSL/mm^2
- Kv3.1 α-subunit mRNA expression (Au1, PCP + drug 0.3 mg/kg/day): 18.60 ± 1.75 PSL/mm^2
- Kv3.1 α-subunit mRNA expression (Au1, PCP + drug 1 mg/kg/day): 18.68 ± 0.80 PSL/mm^2
- Kv3.1 α-subunit mRNA expression (Au1, PCP + drug 3 mg/kg/day): 17.42 ± 1.46 PSL/mm^2
- Kv3.1 α-subunit mRNA expression (Au1, PCP + drug 10 mg/kg/day): 16.91 ± 0.86 PSL/mm^2
- Kv3.1 α-subunit mRNA expression (CA1pd, PCP + drug 0.3 mg/kg/day): 19.98 ± 1.59 PSL/mm^2
- Kv3.1 α-subunit mRNA expression (CA1pd, PCP + drug 1 mg/kg/day): 19.14 ± 2.06 PSL/mm^2
- Kv3.1 α-subunit mRNA expression (CA1pd, PCP + drug 3 mg/kg/day): 18.37 ± 1.54 PSL/mm^2
- Kv3.1 α-subunit mRNA expression (CA1pd, PCP + drug 10 mg/kg/day): 20.15 ± 1.22 PSL/mm^2
- Kv3.1 α-subunit mRNA expression (CA2pd, PCP + drug 0.3 mg/kg/day): 21.36 ± 2.52 PSL/mm^2
- Kv3.1 α-subunit mRNA expression (CA2pd, PCP + drug 1 mg/kg/day): 17.72 ± 1.86 PSL/mm^2
- Kv3.1 α-subunit mRNA expression (CA2pd, PCP + drug 10 mg/kg/day): 20.59 ± 1.35 PSL/mm^2
- Kv3.1 α-subunit mRNA expression (CA3pd, PCP + drug 0.3 mg/kg/day): 33.71 ± 3.48 PSL/mm^2
- Kv3.1 α-subunit mRNA expression (CA3pd, PCP + drug 1 mg/kg/day): 30.50 ± 1.94 PSL/mm^2
- Kv3.1 α-subunit mRNA expression (CA3pd, PCP + drug 3 mg/kg/day): 33.46 ± 2.04 PSL/mm^2
- Kv3.1 α-subunit mRNA expression (CA3pd, PCP + drug 10 mg/kg/day): 32.81 ± 1.82 PSL/mm^2
- Kv3.1 α-subunit mRNA expression (DGgd, PCP + drug 0.3 mg/kg/day): 35.22 ± 1.16 PSL/mm^2
- Kv3.1 α-subunit mRNA expression (DGgd, PCP + drug 1 mg/kg/day): 33.04 PSL/mm^2
- Kv3.1 α-subunit mRNA expression (DGgd, PCP + drug 3 mg/kg/day): 36.51 ± 1.07 PSL/mm^2
- Kv3.1 α-subunit mRNA expression (DGgd, PCP + drug 10 mg/kg/day): 38.16 ± 1.10 PSL/mm^2
- Kv3.1 α-subunit mRNA expression (IL, PCP + drug 0.3 mg/kg/day): 12.00 ± 0.65 PSL/mm^2
- Kv3.1 α-subunit mRNA expression (IL, PCP + drug 1 mg/kg/day): 11.27 ± 1.08 PSL/mm^2
- Kv3.1 α-subunit mRNA expression (IL, PCP + drug 3 mg/kg/day): 11.40 ± 0.41 PSL/mm^2
- Kv3.1 α-subunit mRNA expression (IL, PCP + drug 10 mg/kg/day): 12.15 ± 0.62 PSL/mm^2
- Kv3.1 α-subunit mRNA expression (IO, PCP + drug 0.3 mg/kg/day): 15.50 ± 0.51 PSL/mm^2
- Kv3.1 α-subunit mRNA expression (IO, PCP + drug 1 mg/kg/day): 16.18 ± 0.32 PSL/mm^2
- Kv3.1 α-subunit mRNA expression (IO, PCP + drug 3 mg/kg/day): 16.83 ± 0.79 PSL/mm^2
- Kv3.1 α-subunit mRNA expression (IO, PCP + drug 10 mg/kg/day): 17.74 ± 0.37 PSL/mm^2
- Kv3.1 α-subunit mRNA expression (M1, PCP + drug 0.3 mg/kg/day): 15.83 ± 0.69 PSL/mm^2
- Kv3.1 α-subunit mRNA expression (M1, PCP + drug 1 mg/kg/day): 16.17 ± 1.27 PSL/mm^2
- Kv3.1 α-subunit mRNA expression (M1, PCP + drug 3 mg/kg/day): 16.17 ± 0.79 PSL/mm^2
- Kv3.1 α-subunit mRNA expression (M1, PCP + drug 10 mg/kg/day): 16.27 ± 0.37 PSL/mm^2
- Kv3.1 α-subunit mRNA expression (M2, PCP + drug 3 mg/kg/day): 14.48 ± 0.90 PSL/mm^2
- Kv3.1 α-subunit mRNA expression (MG, PCP + drug 0.3 mg/kg/day): 26.64 ± 2.22 PSL/mm^2
- Kv3.1 α-subunit mRNA expression (MM, PCP + drug 10 mg/kg/day): 4.69 ± 2.24 PSL/mm^2
- Kv3.1 α-subunit mRNA expression (Pir, PCP + drug 0.3 mg/kg/day): 37.73 ± 1.18 PSL/mm^2
- Kv3.1 α-subunit mRNA expression (Pir, PCP + drug 1 mg/kg/day): 36.82 ± 0.51 PSL/mm^2
- Kv3.1 α-subunit mRNA expression (Pir, PCP + drug 3 mg/kg/day): 43.78 ± 1.20 PSL/mm^2
- Kv3.1 α-subunit mRNA expression (Pir, PCP + drug 10 mg/kg/day): 40.66 ± 2.21 PSL/mm^2
- Kv3.1 α-subunit mRNA expression (RSa, PCP + drug 0.3 mg/kg/day): 16.53 ± 1.13 PSL/mm^2
- Kv3.1 α-subunit mRNA expression (RSa, PCP + drug 1 mg/kg/day): 16.92 ± 0.74 PSL/mm^2
- Kv3.1 α-subunit mRNA expression (RSa, PCP + drug 3 mg/kg/day): 18.21 ± 1.15 PSL/mm^2
- Kv3.1 α-subunit mRNA expression (RSa, PCP + drug 10 mg/kg/day): 18.77 ± 1.07 PSL/mm^2
- Kv3.1 α-subunit mRNA expression (RSg, PCP + drug 0.3 mg/kg/day): 19.48 ± 0.72 PSL/mm^2
- Kv3.1 α-subunit mRNA expression (RSg, PCP + drug 1 mg/kg/day): 19.43 ± 1.20 PSL/mm^2
- Kv3.1 α-subunit mRNA expression (RSg, PCP + drug 3 mg/kg/day): 20.96 ± 1.08 PSL/mm^2
- Kv3.1 α-subunit mRNA expression (RSg, PCP + drug 10 mg/kg/day): 19.59 ± 0.92 PSL/mm^2
- Kv3.1 α-subunit mRNA expression (VMStr, PCP + drug 3 mg/kg/day): 7.52 PSL/mm^2
- Kv3.1 α-subunit mRNA expression (VMStr, PCP + drug 10 mg/kg/day): 5.99 ± 0.28 PSL/mm^2
- Kv3.1 α-subunit mRNA expression (VO, PCP + drug 0.3 mg/kg/day): 19.03 ± 1.00 PSL/mm^2
- Kv3.1 α-subunit mRNA expression (VO, PCP + drug 1 mg/kg/day): 18.35 ± 1.04 PSL/mm^2
- Kv3.1 α-subunit mRNA expression (VO, PCP + drug 3 mg/kg/day): 18.96 ± 0.86 PSL/mm^2
- Kv3.1 α-subunit mRNA expression (VO, PCP + drug 10 mg/kg/day): 19.88 ± 0.58 PSL/mm^2
- Kv3.1 α-subunit mRNA expression (dRt, PCP + drug 0.3 mg/kg/day): 50.99 ± 2.22 PSL/mm^2
- Kv3.1 α-subunit mRNA expression (dRt, PCP + drug 1 mg/kg/day): 50.92 ± 3.80 PSL/mm^2
- Kv3.1 α-subunit mRNA expression (dRt, PCP + drug 3 mg/kg/day): 52.87 ± 1.95 PSL/mm^2
- Kv3.1 α-subunit mRNA expression (dRt, PCP + drug 10 mg/kg/day): 52.42 ± 1.19 PSL/mm^2
- Kv3.1 α-subunit mRNA expression (vRt, PCP + drug 0.3 mg/kg/day): 54.57 ± 3.12 PSL/mm^2
- Kv3.1 α-subunit mRNA expression (vRt, PCP + drug 1 mg/kg/day): 46.70 ± 3.99 PSL/mm^2
- Kv3.1 α-subunit mRNA expression (vRt, PCP + drug 3 mg/kg/day): 42.97 ± 2.22 PSL/mm^2
- Kv3.1 α-subunit mRNA expression (vRt, PCP + drug 10 mg/kg/day): 53.69 ± 2.07 PSL/mm^2
